This note sets out measurements from patent US20040024055A1, “Pharmaceutical composition containing the exract of saururus chinensis baill useful as an anticancer agent and a process for the preparation thereof” (priority 2000, published 2004).

In general, IC50 refers to the concentration at which inhibition is half-maximal. Read a low IC50 as inhibition by little substance.

Converted amounts (≈) assume the structure as drawn.

Assay [1] relates to DU-145 prostate cancer cell line. Nature of the assay: MTT analysis, anticancer activity. Type of assay: cell-based, human. To be noted: Homo sapiens, DU-145, 48 hr.
Assay [2] has as its system SK-Hep-1 liver cancer cell line. Nature of the assay: MTT analysis, anticancer activity. Type of assay: cell-based, human. To be noted: Homo sapiens, SK-HEP1, 48 hr.
The subject of the next assay is A431. Nature of the assay: MTT analysis, anticancer activity. The settings on record: Homo sapiens, A-431, 48 hr. Type of assay: cell-based, human.
In a further assay the test system is SK-BR-3. The experiment in a line: MTT analysis, anticancer activity. Type of assay: cell-based, human. The settings on record: Homo sapiens, SK-BR-3, 48 hr.
In another assay the test system is SK-MEL-28. The experiment in a line: MTT analysis, anticancer activity. To be noted: Homo sapiens, SK-MEL-28, 48 hr. The format is cell-based, human.
The test system of the next assay is T98G. Nature of the assay: MTT analysis, anticancer activity. Type of assay: cell-based, human. The settings on record: Homo sapiens, T98G, 48 hr.
The test system of a further assay is HS683. Nature of the assay: MTT analysis, anticancer activity. The format is cell-based, human. To be noted: Homo sapiens, Hs 683, 48 hr.
For a further assay, the system named is SK-N-SH. The experiment in a line: MTT analysis, anticancer activity. The settings on record: Homo sapiens, SK-N-SH, 48 hr. The format is cell-based, human.
The next assay deals with CHO. The experiment in a line: MTT analysis, cytotoxicity against normal cell line. The format is cell-based, Chinese hamster. The settings on record: Cricetulus griseus, CHO; MTT, 48 hr.
The next assay has as its system 293. The assay is described as above. The format is cell-based, human. The settings on record: Homo sapiens, HEK293; MTT, 48 hr.
In the next assay the test system is HS-746T. Nature of the assay: MTT analysis, anticancer activity. Type of assay: cell-based, human. The settings on record: Homo sapiens, Hs746T; MTT, 48 hr.
A further assay deals with NCI-H69. The experiment in a line: MTT analysis, anticancer activity. Type of assay: cell-based, human. The settings on record: Homo sapiens, NCI-H69; MTT, 48 hr.
In a further assay the test system is 3T3-L1. The experiment in a line: MTT analysis, cytotoxicity against normal cell line. The format is cell-based, mouse. To be noted: Mus musculus, 3T3-L1; MTT, 48 hr.

As for `COc1cccc2c1C(=O)c1c(O)c3c(c(O)c1C2=O)C[C@@](O)(C(=O)CO)C[C@@H]3O[C@H]1C[C@H](N)[C@H](O)[C@H](C)O1` [Adriamycin, adriamycin (doxorubicin)], the concentration for half-maximal inhibition (IC50) in [1] was more than 50 µg/mL; in assay [2] it was 0.282 µg/mL (≈ 0.518 µM); in the assay with A431, 0.0675 µg/mL (≈ 0.124 µM); with SK-BR-3 it was 0.705 µg/mL (≈ 1.3 µM); with SK-MEL-28, 0.75 µg/mL (≈ 1.38 µM); in the assay with T98G, 1.61 µg/mL (≈ 2.97 µM). For the same compound, the IC50 is 0.205 µg/mL (≈ 0.377 µM) in the assay with HS683; 0.207 µg/mL (≈ 0.381 µM) in the assay on SK-N-SH; 5.22 µg/mL (≈ 9.61 µM) in the assay with CHO; less than 0.008 µg/mL in the assay with 293; more than 50 µg/mL in the assay on HS-746T; 0.168 µg/mL (≈ 0.308 µM) in the assay with NCI-H69. The IC50 with 3T3-L1 was determined as 2 µg/mL (≈ 3.68 µM).
